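Five compound concentrations were applied to cells in 96-well plates for 48 hours; endpoints were derived by simple linear interpolation of the resulting dose-response curve. TGI: total growth inhibition.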
What was measured:
Assay in all cases: inhibition of tumour cell growth, NCI panel, 48 h
786-0 renal = tested on: 786-0 renal
SF-268 CNS = tested on: SF-268 CNS
UO-31 renal = tested on: UO-31 renal
LOX IMVI melanoma = tested on: LOX IMVI melanoma
M14 melanoma = tested on: M14 melanoma
HS 578T breast = tested on: HS 578T breast
A498 renal = tested on: A498 renal
K-562 leukemia = tested on: K-562 leukemia
MDA-N = tested on: MDA-N
HCT-116 colon = tested on: HCT-116 colon
SN12C renal = tested on: SN12C renal
OVCAR-4 ovarian = tested on: OVCAR-4 ovarian
IGROV1 ovarian = tested on: IGROV1 ovarian
SK-MEL-5 melanoma = tested on: SK-MEL-5 melanoma
OVCAR-8 ovarian = tested on: OVCAR-8 ovarian
U251 CNS = tested on: U251 CNS
MALME-3M melanoma = tested on: MALME-3M melanoma
SNB-75 CNS = tested on: SNB-75 CNS
CCRF-CEM leukemia = tested on: CCRF-CEM leukemia
UACC-257 melanoma = tested on: UACC-257 melanoma
NCI-H23 lung = tested on: NCI-H23 lung
A549 NSCLC = tested on: A549 NSCLC
BT-549 breast = tested on: BT-549 breast
OVCAR-3 ovarian = tested on: OVCAR-3 ovarian
NCI-H226 lung = tested on: NCI-H226 lung
PC-3 prostate = tested on: PC-3 prostate
T-47D breast = tested on: T-47D breast
EKVX NSCLC = tested on: EKVX NSCLC
RPMI-8226 leukemia = tested on: RPMI-8226 leukemia
UACC-62 melanoma = tested on: UACC-62 melanoma
SK-MEL-28 melanoma = tested on: SK-MEL-28 melanoma
DU-145 prostate = tested on: DU-145 prostate
HOP-92 NSCLC = tested on: HOP-92 NSCLC
HCC-2998 colon = tested on: HCC-2998 colon
SR leukemia = tested on: SR leukemia
NCI-H522 lung = tested on: NCI-H522 lung
HCT-15 colon = tested on: HCT-15 colon
SF-539 CNS = tested on: SF-539 CNS
RXF 393 renal = tested on: RXF 393 renal
HT29 colon = tested on: HT29 colon
ACHN renal = tested on: ACHN renal
MDA-MB-231 breast = tested on: MDA-MB-231 breast
SW-620 colon = tested on: SW-620 colon
SK-OV-3 ovarian = tested on: SK-OV-3 ovarian
MDA-MB-435 = tested on: MDA-MB-435
MCF7 breast = tested on: MCF7 breast
HL-60(TB) leukemia = tested on: HL-60(TB) leukemia
HOP-62 NSCLC = tested on: HOP-62 NSCLC
SNB-19 CNS = tested on: SNB-19 CNS
COLO 205 colon = tested on: COLO 205 colon
TK-10 renal = tested on: TK-10 renal
OVCAR-5 ovarian = tested on: OVCAR-5 ovarian
KM12 colon = tested on: KM12 colon
NCI/ADR-RES ovarian = tested on: NCI/ADR-RES ovarian
MOLT-4 leukemia = tested on: MOLT-4 leukemia
CAKI-1 renal = tested on: CAKI-1 renal
SK-MEL-2 melanoma = tested on: SK-MEL-2 melanoma
NCI-H460 lung = tested on: NCI-H460 lung
SF-295 CNS = tested on: SF-295 CNS

**Q.** With `O=C1C=CC(=O)N1c1ccc(I)cc1` as the molecule, how does the TGI (786-0 renal) read?
**A.** 20.7 µM

**Q.** What about the TGI (SF-268 CNS) of the same molecule?
**A.** > 77.5 µM

**Q.** And the TGI (UO-31 renal)?
**A.** 38.5 µM

**Q.** What about the TGI (LOX IMVI melanoma) of the same molecule?
**A.** 42.9 µM

**Q.** And the TGI (M14 melanoma)?
**A.** 31.2 µM

**Q.** What about the TGI (HS 578T breast) of the same molecule?
**A.** 66.3 µM

**Q.** And the TGI (A498 renal)?
**A.** 39.2 µM

**Q.** And the TGI (K-562 leukemia)?
**A.** 53.5 µM

**Q.** And the TGI (MDA-N)?
**A.** 30.1 µM

**Q.** What about the TGI (HCT-116 colon) of the same molecule?
**A.** 30.9 µM

**Q.** And the TGI (SN12C renal)?
**A.** 48 µM

**Q.** And the TGI (OVCAR-4 ovarian)?
**A.** 60.2 µM

**Q.** What about the TGI (IGROV1 ovarian) of the same molecule?
**A.** > 67.3 µM

**Q.** What about the TGI (SK-MEL-5 melanoma) of the same molecule?
**A.** 34.1 µM

**Q.** And the TGI (OVCAR-8 ovarian)?
**A.** > 100 µM

**Q.** And the TGI (U251 CNS)?
**A.** > 54.9 µM

**Q.** What about the TGI (MALME-3M melanoma) of the same molecule?
**A.** 33.1 µM

**Q.** What about the TGI (SNB-75 CNS) of the same molecule?
**A.** 44.1 µM

**Q.** What about the TGI (CCRF-CEM leukemia) of the same molecule?
**A.** 12 µM

**Q.** What about the TGI (UACC-257 melanoma) of the same molecule?
**A.** 32.5 µM

**Q.** And the TGI (NCI-H23 lung)?
**A.** 51.2 µM

**Q.** What about the TGI (A549 NSCLC) of the same molecule?
**A.** 47 µM

**Q.** What about the TGI (BT-549 breast) of the same molecule?
**A.** 36 µM

**Q.** And the TGI (OVCAR-3 ovarian)?
**A.** 52.7 µM

**Q.** What about the TGI (NCI-H226 lung) of the same molecule?
**A.** 46.3 µM

**Q.** What about the TGI (PC-3 prostate) of the same molecule?
**A.** 40.7 µM

**Q.** What about the TGI (T-47D breast) of the same molecule?
**A.** 72.3 µM

**Q.** And the TGI (EKVX NSCLC)?
**A.** 41.2 µM

**Q.** What about the TGI (RPMI-8226 leukemia) of the same molecule?
**A.** 22.1 µM

**Q.** What about the TGI (UACC-62 melanoma) of the same molecule?
**A.** 31.8 µM

**Q.** And the TGI (SK-MEL-28 melanoma)?
**A.** 35.3 µM

**Q.** And the TGI (DU-145 prostate)?
**A.** 38 µM

**Q.** What about the TGI (HOP-92 NSCLC) of the same molecule?
**A.** 46.6 µM

**Q.** And the TGI (HCC-2998 colon)?
**A.** 35.1 µM

**Q.** And the TGI (SR leukemia)?
**A.** 45.5 µM

**Q.** What about the TGI (NCI-H522 lung) of the same molecule?
**A.** 47.4 µM

**Q.** What about the TGI (HCT-15 colon) of the same molecule?
**A.** 33.9 µM

**Q.** What about the TGI (SF-539 CNS) of the same molecule?
**A.** > 57.6 µM

**Q.** And the TGI (RXF 393 renal)?
**A.** 33.6 µM

**Q.** What about the TGI (HT29 colon) of the same molecule?
**A.** 45.1 µM

**Q.** And the TGI (ACHN renal)?
**A.** 33.3 µM

**Q.** What about the TGI (MDA-MB-231 breast) of the same molecule?
**A.** 52.7 µM

**Q.** What about the TGI (SW-620 colon) of the same molecule?
**A.** 49.3 µM

**Q.** And the TGI (SK-OV-3 ovarian)?
**A.** 32.5 µM

**Q.** And the TGI (MDA-MB-435)?
**A.** 34.7 µM

**Q.** And the TGI (MCF7 breast)?
**A.** 45.3 µM

**Q.** And the TGI (HL-60(TB) leukemia)?
**A.** 9.73 µM

**Q.** And the TGI (HOP-62 NSCLC)?
**A.** 38.2 µM

**Q.** And the TGI (SNB-19 CNS)?
**A.** > 61.5 µM

**Q.** What about the TGI (COLO 205 colon) of the same molecule?
**A.** 13.9 µM

**Q.** And the TGI (TK-10 renal)?
**A.** 30.3 µM

**Q.** What about the TGI (OVCAR-5 ovarian) of the same molecule?
**A.** 47.6 µM

**Q.** What about the TGI (KM12 colon) of the same molecule?
**A.** 45.8 µM

**Q.** What about the TGI (NCI/ADR-RES ovarian) of the same molecule?
**A.** 82.3 µM

**Q.** And the TGI (MOLT-4 leukemia)?
**A.** 7.49 µM

**Q.** What about the TGI (CAKI-1 renal) of the same molecule?
**A.** 34.3 µM

**Q.** And the TGI (SK-MEL-2 melanoma)?
**A.** 40.7 µM

**Q.** And the TGI (NCI-H460 lung)?
**A.** > 86.3 µM

**Q.** What about the TGI (SF-295 CNS) of the same molecule?
**A.** 55.5 µM

From PubChem BioAssay (NCI)
